Source: PMC6776562, “Inhibition of Rac1-dependent forgetting alleviates memory deficits in animal models of Alzheimer’s disease” (Protein & Cell, 2019)
Entries after “also recorded” stand apart in the source; their conditions may differ. One block for each molecule: values may come before it.

Tests used:
APP/PS1 mice = experiment: Morris water maze (MWM) spatial learning in AD mice; assay type: in vivo, mouse
Procedure: (§1) Mice were treated with EHop-016 (10 mg/kg), CS7170 (50 mg/kg), CS7171 (50 mg/kg), and JKF-034 (40 mg/kg). These drugs were dissolved in saline (0.9% NaCl) containing 0.5% Tween-80 (Sigma P4780). Each mouse received 200 μL of the solution by intragastric administration once per day (administered at 9:00 am). The drug administration was started seven days before the beginning of the Morris water maze (MWM) task and was continued until the end of the assay. All control groups were fed with vehicle solution.
The MWM test, a classic paradigm used to study spatial reference memory, was performed (Vorhees and Williams, [2006]). Briefly, a circular polypropylene water tank (120 cm in diameter) was filled with opaque water and milk (20 °C ± 1 °C) and a transparent platform (15 cm diameter) was submerged (2 cm below the water surface) in the center of one of the four virtually divided quadrants. Distal cues were fixed on the wall of the tank as spatial references. For the classic training paradigm (Figs. 2 and 6), mice were allowed to find the platform within 60 s and to remain on it for at least 5 s. For the modified training paradigm (Fig. 3A), mice were trained over 5 consecutive sessions with a 1-h intervals within one day. After training, mice were returned to their home cages and the memory of the location of the platform was tested at 6 h after training (Fig. 3C–D). A mouse behavior tracking software (ANY-maze software) was used to record data automatically.

Rac1 [1] = target: Rac1 (Mus musculus, UniProt P63001); experiment: Rac1 activity (Rac1-GTP/total Rac1) in hippocampal tissue by PAK-PBD pull-down and Western blot after drug administration; assay type: in vivo, APP/PS1 mice
Procedure: We first assayed Rac1 activity in hippocampal tissues from AD patients and healthy age-matched, non-demented controls (Detailed information is provided in Table 1). The levels of the guanosine triphosphate (GTP)-bound active form of Rac1 were measured using the p21-binding domain (PBD) pull-down assay. The GTP-bound active form of Rac1 was pulled down through the interactive p21-activated kinase (PAK) fragment using PAK-PBD beads and measured using a Western blot assay (Fig. 1A), as described in previous studies (Shuai et al., [2010]; Liu et al., [2016]) from our laboratory and studies conducted by other research groups (Sander et al., [1998]; Barnes et al., [2008]). The total amount of Rac1 and actin were also evaluated using the Western blot analyses (See MATERIALS AND METHODS). […] Since there were no significant differences in total Rac1 levels between the experimental and control groups (See representative Western blot in all relevant figures), the ratio of Rac1-GTP to total Rac1 was taken as a measure of Rac1 activity. […] Consistent with this observation, Rac1 activity was also elevated in the hippocampus of APP/PS1 mice at different age (Fig. 1D). […] This increase was more pronounced in older flies (Fig. S1F).
as §1
The hippocampal tissues from human subjects and mice were harvested and stored in a liquid nitrogen tank for biochemical assay. The tissues were homogenized in cold lysis buffer (Merck-Millipore, 20-168). The insoluble debris were removed after centrifugation at 13,000 rpm (for 10 min, at 4 °C). For GTP-bound Rac/Cdc42, lysates were incubated with GST-tagged PAK (p21-activated kinase)-PBD agarose beads (Cytoskeleton, PAK02) overnight at 4 °C. On the second day, the beads were washed three times with lysis buffer before subjecting them to SDS-PAGE (15%) and transferring them onto nitrocellulose membranes (Millipore, HATF00010). The membranes were incubated with primary antibodies (for Rac1: BD Transduction Laboratories, #610650, 1:2,000 dilution; for Cdc42, Santa Cruz Biotechnology, lot No. sc-8401, 1:500 dilution) overnight at 4 °C and with HRP-conjugated goat anti-mouse IgG (Cell Signaling Technology, #7076) for 1 h at room temperature. Intensities of the detected bands were analyzed using ImageJ software (National Institutes of Health). The total amount of Rac1 in the lysate was detected using a routine Western blot procedure. RhoA-GTP levels were measured by using the Rho-GTP monoclonal antibody (New East, lot No. 26904, Dilution: 1:1,000). Information regarding the other antibodies used is as follows: anti-RhoA (67B9), Cell Signaling, lot No. #2117, dilution: 1:1,000; anti-Actin, Clone C4, Millipore, lot No. #3018859, dilution: 1:2,000; anti-Amyloid 1-42 6E10, BioLegend, lot No. 803001, dilution: 1:1,000; anti-Phospho-PAK1 (Ser144)/PAK2 (Ser141), Cell Signaling, lot No. #2606, dilution: 1:1,000.

[2] = In vitro metabolic stability in human liver microsomes; assay type: in vitro ADME
Procedure: (§2) Measurements of metabolic stability can be performed with liver microsomes, which are known to contain the major drug-metabolizing enzymes and UDP-glucuronosyltransferase (Baranczewski et al., [2006]). The in vitro metabolic stability levels of CS7171 and JKF-034 were measured using human, monkey, and mouse liver microsomes. The metabolic half-time (T1/2) and intrinsic clearance (Clint) were assayed using LC-MS analysis. Ketanserin is a potent, orally effective antagonist of endogenous serotonin. Its pharmacological profile is well studied (Brogden and Sorkin, [1990]). In this study, we used ketanserin as a control. If the T1/2 of the tested compound was 30–120 min, the compound was considered to show moderate metabolism in liver microsomes. If the T1/2 value was less than 30 min, the compound was considered to be susceptible to metabolism in liver microsomes.

[3] = In vitro metabolic stability in mouse liver microsomes; assay type: in vitro ADME
Procedure: as §2

[4] = In vitro metabolic stability in monkey liver microsomes; assay type: in vitro ADME
Procedure: as §2

[5] = In vitro blood-brain barrier permeability assay; assay type: in vitro ADME; conditions: dog, 37 °C, MDR-MDCK
Procedure: The MDR-MDCK cell line can be used as a fast blood-brain barrier (BBB) model to aid drug discovery (Wang et al., [2005]). In this study, the MDR-MDCK cell line was used to evaluate the permeability coefficients of CS7171 and JKF-034. Briefly, CS7171 and JKF-034 were prepared to final concentrations of 5 μmol/L. The cells were dosed on the basolateral side (B-A) and apical side (A-B) and incubated at 37 °C for 90 min. Each test was performed in duplicate. The apparent permeability coefficient, Papp, was calculated using the following formula: Papp=VA/Area×Time×(drugacceptor,90-min/drugdonor,0-min×Dilution Factor
VA is the volume in the acceptor well, Area is the surface area of the membrane, Time is the total transport time in seconds, [drug]donor, 0-min is the donor drug concentration measured at 0 min; [drug]acceptor, 90-min is the acceptor drug concentration measured at 90 min; dilution factor is the degree of dilution of the donor sample before loading to LC-MS/MS.

Rac1 in HEK-293 cells = experiment: Rac1 activation in cultured cells detected by G-LISA; assay type: cell-based; conditions: 10 μg/mL Aβ42 oligomers in culture medium for 2 h
Procedure: Synthetic wide-type Aβ42 (purchased from AnaSpec) was initially dissolved in hexafluoroisopropanol (Sigma) to 5 mg/mL for subpackaging. Hexafluoroisopropanol was removed by air drying to obtain an Aβ42 peptide film, which was stored at −80 °C. Then, 24 h before the experiment, the peptide film was first re-suspended in DMSO to a concentration of 12.5 mg/mL and then diluted with Dulbecco’s Modified Eagle Medium (DMEM)/F-12 (phenol red-free; Invitrogen) to a final concentration of 500 μg/mL. The HEK-293 cells were cultured in DMEM containing 10% fetal bovine serum (FBS) at 37 °C with 5% CO2. For oligomer treatment, cells were washed with fresh medium and incubated with 10 μg/mL Aβ42 oligomers for 2 h. Cells were washed twice with PBS before they are collected for Rac1 activity detection by G-LISA (BK128, Cytoskeleton) in accordance with the manufacturer’s protocol.

[6] = system: Aβ42 transgenic flies (elav/Y; UAS-Aβ42/+); experiment: Pavlovian olfactory aversive conditioning in AD flies; assay type: in vivo, Drosophila; conditions: AD flies fed 100 μmol/L EHop-016 for 7 days
Procedure: (§3) Flies were treated with EHop-016 (Yong-Can Biotech). The EHop-016 was dissolved in dimethyl sulfoxide (DMSO; Sigma, D8418-100ML) to make a 10-mmol/L stock solution. This solution was stored at −20 °C for later use. Before administration, 4% (m/v) sucrose solution was used to dilute the stock solution to a concentration of 100 µmol/L (working solution). After the flies were starved for 3 h in empty vials, they were fed with the working solution for 5 h. Feeding was carried out once per day until testing.
To assess learning and memory, flies underwent classic olfactory aversive conditioning. One- to two-day-old flies were collected and fed with EHop-016 (100 µmol/L) for 7 days. Training and testing were performed at 24 °C with 60% relative humidity. During training, about 100 flies were exposed to an electric shock (unconditioned stimulus [US]) paired with either 3-octanol (>95% purity; Fluka, Sigma-Aldrich) or 4-methylcyclohexanol (>99% purity; Fluka, Sigma-Aldrich) as the conditioned stimulus (CS). Performance was tested using a T-maze apparatus within which 3-octanol and 4-methylcyclohexanol were delivered from opposite arms simultaneously. […] The learning score was calculated as the difference between the number of flies in each arm divided by the sum of flies in both arms immediately after training. Performance index was calculated as the average of two reciprocal tests to avoid odor bias. […]

Rac1 [7] = target: Rac1 (Drosophila melanogaster, UniProt P40792); experiment: Rac1 activity in fly whole brain lysate by Western blot; assay type: in vivo; conditions: AD flies; EHop-016 100 μmol/L
Procedure: as §3
The hippocampal tissues from human subjects and mice were harvested and stored in a liquid nitrogen tank for biochemical assay. The tissues were homogenized in cold lysis buffer (Merck-Millipore, 20-168). The insoluble debris were removed after centrifugation at 13,000 rpm (for 10 min, at 4 °C). For GTP-bound Rac/Cdc42, lysates were incubated with GST-tagged PAK (p21-activated kinase)-PBD agarose beads (Cytoskeleton, PAK02) overnight at 4 °C. […] Intensities of the detected bands were analyzed using ImageJ software (National Institutes of Health). The total amount of Rac1 in the lysate was detected using a routine Western blot procedure. RhoA-GTP levels were measured by using the Rho-GTP monoclonal antibody (New East, lot No. 26904, Dilution: 1:1,000). […]

[8] = system: LTP in hippocampal slices of APP/PS1 mice; experiment: Long-term potentiation (fEPSP recording) in hippocampal slices; assay type: cell-based, mouse; conditions: brain slices of 6-month-old APP/PS1 mice; EHop-016 10 μmol/L in ACSF
Procedure: Acute 300-μm transverse hippocampal slices were prepared using a vibratome (VTS3000, USA). The slices were maintained at room temperature in a submersion chamber in artificial cerebrospinal fluid (ACSF) containing 125 mmol/L NaCl (Sigma, 71376), 2.5 mmol/L KCl (Sigma, P9541), 2 mmol/L CaCl2 (Sigma, 499609), 1 mmol/L MgCl2 (Sigma, M1028), 1.25 mmol/L NaH2PO4 (Sigma, S3139), 24 mmol/L NaHCO3 (Sigma, S5761) (pH = 7.4), and 15 mmol/L glucose (Sigma, G8270), bubbled with 95% O2 and 5% CO2. Slices were incubated for at least 1 h before removal for experiments. Slices were kept in the MED probe for 1 h for attachment to the 16-channel array (MED-PG515A, Alpha MED Sciences; preheated to 33 °C). Extracellular field excitatory post-synaptic potentials (fEPSPs) in the Schaffer collateral pathway were evoked at 0.025 Hz and recorded in the CA1. The fEPSPs were evoked using a stimulation intensity that elicited a 30% maximal response. Data acquisition and analysis were performed using the multi-electrode MED64 hardware and software package (Panasonic). Additional analyses were performed using custom macros running under Igor Pro. The LTP was induced by one train of theta burst stimulation (TBS) consisting of one epoch of 10 trains of five bursts repeated at 5 Hz and delivered at the same intensity as in the baseline recordings. […]

[9] = APP/PS1 mice (eight-month-old), oral CS7171 50 mg/kg, CS7170 50 mg/kg, JKF-034 40 mg/kg once per day

Molecule: Amyloid-beta 42 [Aβ42]
- Rac1 activity in HEK-293 cells (Rac1 in HEK-293 cells): capable of stimulating Rac1 activity

Molecule: CCn1c2ccccc2c2cc(Nc3ccnc(NCCCN4CCOCC4)n3)ccc21 [EHop-016]
- MWM escape latency / learning deficit (APP/PS1 mice; 9-month-old APP/PS1 mice, EHop-016 10 mg/kg, versus vehicle-treated AD mice, 10 mg/kg): took less time to locate the hidden platform; also recorded: did not significantly differ from that of WT mice; also recorded: mitigated the learning deficit
- learning defect in aversive olfactory conditioning [6]: significantly rescued the learning defects; also recorded: rescued the learning defect
- Rac1 activity in whole brain lysis (Rac1 [7]): reduced Rac1 activity; also recorded: inhibition of Rac1 activity
- total Rac1 expression (Rac1 [7]): without changing the total Rac1 expression
- total Rac1 expression in hippocampal tissues (Rac1 [1]; 9-month-old AD mice, EHop-016 10 mg/kg): without changing total Rac1 expression
- Rac1 activity (Rac1-GTP/Total Rac1) in hippocampal tissues (Rac1 [1]; 9-month-old AD mice, EHop-016 10 mg/kg, intragastric once per day, 10 days, 10 mg/kg): significantly inhibited Rac1 activity; also recorded: inhibition of Rac1 activity
- LTP maintenance (fast decay after TBS) [8]: The fast decay was rescued; also recorded: attenuated

Continued, in another order:

- hippocampal Rac1 activity (Rac1-GTP/total Rac1) (Rac1 [1]; [9]): not and unable to inhibit Rac1 activity
Molecule: COc1cc(C=C2C(=O)NN(c3ccc(Cl)c(Cl)c3)C2=O)ccc1O [CS7170]
- MWM learning deficit / spatial memory (APP/PS1 mice; [9]): not

- CLint scaled [2]: 39.5 mL/min/kg
- half-life [2]: 44.1 min
- CLint scaled [3]: 312 mL/min/kg
- half-life [3]: 17.5 min
- CLint scaled [4]: 111 mL/min/kg
- half-life [4]: 18.3 min
Molecule: O=C(c1ccc(F)cc1)C1CCN(CCn2c(=O)[nH]c3ccccc3c2=O)CC1 [Ketanserin, reference compound]

- Papp A→B at 90 min, 5 μmol/L ([5]; MDCK-MDR1, A-B): 40.5 ×10⁻⁶ cm/s
- Papp B→A at 90 min, 5 μmol/L ([5]; MDCK-MDR1, B-A): 28.6 ×10⁻⁶ cm/s
Molecule: COCCc1ccc(OCC(O)CNC(C)C)cc1 (stereo not drawn) [Metoprolol, reference compound]
